Test results as given in patent US6737383B1, “Herbicidal oxadiazolidines” (priority 1999, dated 2004).

Assays:
[1] = system: velvetleaf; experiment: Test B pre/postemergence velvetleaf; assay type: in vivo, Abutilon theophrasti
Summary of the method: (§1)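 Response is a visual 0-to-10 score relative to untreated plants, where 0 means no effect and 10 means complete control, taken twelve to sixteen days after application. Treatments went onto soil at planting and onto foliage of 1- to 4-leaf plants, using a surfactant-containing non-phytotoxic solvent.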

[2] = system: duck salad; experiment: Test B flood test duck salad; assay type: in vivo, Heteranthera limosa
Summary of the method: (§2)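 Each value is a visual injury score relative to controls, with 10 meaning complete control and 0 no effect. Evaluation took place twelve to sixteen days after the 2-leaf-stage plants were treated and kept in the greenhouse.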

[3] = system: purple nutsedge; experiment: Test B pre/postemergence purple nutsedge; assay type: in vivo, Cyperus rotundus
Summary of the method: as §1

[4] = system: rice; experiment: Test B flood test rice; assay type: in vivo, Oryza sativa
Summary of the method: as §2

[5] = system: giant foxtail; experiment: Test B pre/postemergence giant foxtail; assay type: in vivo, Setaria faberii
Summary of the method: as §1

[6] = system: smallflower flatsedge; experiment: Test B flood test smallflower flatsedge; assay type: in vivo, Cyperus difformis
Summary of the method: as §2

[7] = system: soybean; experiment: Test B pre/postemergence soybean; assay type: in vivo, Glycine max
Summary of the method: as §1

[8] = system: wheat; experiment: Test B pre/postemergence wheat; assay type: in vivo, Triticum aestivum
Summary of the method: as §1

[9] = system: crabgrass; experiment: Test B pre/postemergence crabgrass; assay type: in vivo, Digitaria sanguinalis
Summary of the method: as §1

[10] = system: pigweed; experiment: Test B pre/postemergence pigweed; assay type: in vivo, Amaranthus retroflexus
Summary of the method: as §1

[11] = system: corn; experiment: Test B pre/postemergence corn; assay type: in vivo, Zea mays
Summary of the method: as §1

[12] = system: wild oat; experiment: Test B pre/postemergence wild oat; assay type: in vivo, Avena fatua
Summary of the method: as §1

[13] = system: morningglory; experiment: Test B pre/postemergence morningglory; assay type: in vivo, Ipomoea hederacea
Summary of the method: as §1

[14] = system: rape; experiment: Test B pre/postemergence rape; assay type: in vivo, Brassica napus
Summary of the method: as §1

[15] = system: sugar beet; experiment: Test B pre/postemergence sugar beet; assay type: in vivo, Beta vulgaris
Summary of the method: as §1

[16] = system: cocklebur; experiment: Test B pre/postemergence cocklebur; assay type: in vivo, Xanthium strumarium
Summary of the method: as §1

[17] = Postemergence, Rate 125 g/ha, scale 0 to 10, 0 is no effect, 10 is complete control
[18] = Postemergence, Rate 500 g/ha, scale 0 to 10, 0 is no effect, 10 is complete control
[19] = Preemergence, Rate 62 g/ha, scale of 0 to 10 where 0 is no effect and 10 is complete control
[20] = Preemergence, Rate 125 g/ha, scale 0 to 10, 0 is no effect, 10 is complete control
[21] = Preemergence, Rate 250 g/ha, scale 0 to 10, 0 is no effect, 10 is complete control
[22] = Preemergence, Rate 500 g/ha, scale 0 to 10, 0 is no effect, 10 is complete control
[23] = Rate 62 g/ha, Postemergence, scale 0 to 10, 0 no effect, 10 complete control
[24] = Rate 62 g/ha, flood test species, Pre-emergence, visual evaluation after twelve to sixteen days
[25] = Rate 125 g/ha, under heading Pre-emergence, flood test species, visual evaluation after twelve to sixteen days
[26] = Rate 250 g/ha, Pre-emergence (flood test species), scale 0 to 10, 0 is no effect, 10 is complete control
[27] = Rate 500 g/ha, Pre-emergence section of Table B, 0 to 10 scale (0 no effect, 10 complete control)
[28] = Postemergence, Rate 250 g/ha, scale 0 to 10

CC(C)C(=O)Cn1c(=O)on(C(=O)N(c2ccc(F)cc2F)C(C)C)c1=O [Compound 486]
Velvetleaf plant response rating [1, 17]: 0
Plant response rating, Velvetleaf [1, 18]: 6
Plant response rating, Velvetleaf [1, 19]: 0
Velvetleaf plant response rating [1, 20]: 0
Velvetleaf plant response rating [1, 21]: 0
Velvetleaf plant response rating [1, 22]: 0
Velvetleaf plant response rating [1, 23]: 0
Plant response rating, Ducksalad (0 to 10 scale, 0 is no effect, 10 is complete control) [2, 24]: 0
Ducksalad plant response rating (0 to 10 scale, 0 is no effect, 10 is complete control) [2, 25]: 0
Ducksalad plant response rating [2, 26]: 0
Ducksalad plant response rating [2, 27]: 0
Nutsedge plant response rating [3, 17]: 0
Plant response rating, Nutsedge [3, 18]: 0
Plant response rating, Nutsedge [3, 19]: 0
Nutsedge plant response rating [3, 20]: 0
Nutsedge plant response rating [3, 21]: 0
Nutsedge plant response rating [3, 22]: 0
Nutsedge plant response rating [3, 23]: 0
Plant response rating, Rice (0 to 10 scale, 0 is no effect, 10 is complete control) [4, 24]: 0
Rice plant response rating (0 to 10 scale, 0 is no effect, 10 is complete control) [4, 25]: 0
Rice plant response rating [4, 26]: 0
Rice plant response rating [4, 27]: 0
Giant foxtail plant response rating [5, 17]: 7
Plant response rating, Giant foxtail [5, 18]: 9
Plant response rating, Giant foxtail [5, 19]: 9
Giant foxtail plant response rating [5, 20]: 10
Giant foxtail plant response rating [5, 21]: 10
Giant foxtail plant response rating [5, 22]: 10
Giant foxtail plant response rating [5, 23]: 2
Plant response rating, S. Flatsedge (0 to 10 scale, 0 is no effect, 10 is complete control) [6, 24]: 0
S. Flatsedge plant response rating (0 to 10 scale, 0 is no effect, 10 is complete control) [6, 25]: 0
S. Flatsedge plant response rating [6, 26]: 0
S. Flatsedge plant response rating [6, 27]: 0
Soybean plant response rating [7, 17]: 4
Plant response rating, Soybean [7, 18]: 4
Plant response rating, Soybean [7, 19]: 0
Soybean plant response rating [7, 20]: 0
Soybean plant response rating [7, 21]: 0
Soybean plant response rating [7, 22]: 2
Soybean plant response rating [7, 23]: 4
Wheat plant response rating [8, 17]: 0
Plant response rating, Wheat [8, 18]: 5
Plant response rating, Wheat [8, 19]: 0
Wheat plant response rating [8, 20]: 0
Wheat plant response rating [8, 21]: 0
Wheat plant response rating [8, 22]: 0
Wheat plant response rating [8, 23]: 0
Crabgrass plant response rating [9, 17]: 3
Crabgrass plant response rating [9, 28]: 5
Plant response rating, Crabgrass [9, 18]: 9
Plant response rating, Crabgrass [9, 19]: 8
Crabgrass plant response rating [9, 20]: 9
Crabgrass plant response rating [9, 21]: 10
Crabgrass plant response rating [9, 22]: 10
Crabgrass plant response rating [9, 23]: 0
Redroot pigweed plant response rating [10, 17]: 0
Plant response rating, Redroot pigweed [10, 18]: 2
Plant response rating, Redroot pigweed [10, 19]: 6
Redroot pigweed plant response rating [10, 20]: 8
Redroot pigweed plant response rating [10, 21]: 9
Redroot pigweed plant response rating [10, 22]: 9
Redroot pigweed plant response rating [10, 23]: 0
Corn plant response rating [11, 17]: 0
Corn plant response rating [11, 28]: 0
Plant response rating, Corn [11, 18]: 3
Plant response rating, Corn [11, 19]: 0
Corn plant response rating [11, 20]: 0
Corn plant response rating [11, 21]: 5
Corn plant response rating [11, 22]: 8
Corn plant response rating [11, 23]: 0
Wild oats plant response rating [12, 17]: 0
Plant response rating, Wild oats [12, 18]: 3
Plant response rating, Wild oats [12, 19]: 0
Wild oats plant response rating [12, 20]: 3
Wild oats plant response rating [12, 21]: 5
Wild oats plant response rating [12, 22]: 8
Wild oats plant response rating [12, 23]: 0
Morningglory plant response rating [13, 17]: 1
Plant response rating, Morningglory [13, 18]: 2
Plant response rating, Morningglory [13, 19]: 0
Morningglory plant response rating [13, 20]: 0
Morningglory plant response rating [13, 21]: 0
Morningglory plant response rating [13, 22]: 0
Morningglory plant response rating [13, 23]: 1
Rape plant response rating [14, 17]: 0
Plant response rating, Rape [14, 18]: 1
Plant response rating, Rape [14, 19]: 2
Rape plant response rating [14, 20]: 2
Rape plant response rating [14, 21]: 6
Rape plant response rating [14, 22]: 6
Rape plant response rating [14, 23]: 0
Sugarbeets plant response rating [15, 17]: 0
Plant response rating, Sugarbeets [15, 18]: 2
Plant response rating, Sugarbeets [15, 19]: 0
Sugarbeets plant response rating [15, 20]: 0
Sugarbeets plant response rating [15, 21]: 4
Sugarbeets plant response rating [15, 22]: 6
Sugarbeets plant response rating [15, 23]: 0
Cocklebur plant response rating [16, 17]: 0
Cocklebur plant response rating [16, 28]: 0
Plant response rating, Cocklebur [16, 18]: 0
Plant response rating, Cocklebur [16, 19]: 0
Cocklebur plant response rating [16, 20]: 0
Cocklebur plant response rating [16, 22]: 0
Cocklebur plant response rating [16, 23]: 0
